US10266568B2, “Cyclic citrullinated peptide, rheumatoid arthritis diagnosis composition including the same, rheumatoid arthritis diagnosis method using the peptide or the composition, and method of screening diagnostic marker for rheumatoid arthritis” (KOREA INSTITUTE OF SCIENCE AND TECHNOLOGY, priority 2015, dated 2019)
Positions of bridges follow the written chain, without caps; N, C: chain ends. Non-standard residues stand in square brackets, D forms with d. No end group written: not given here. Cit = NC(=O)NCCC[C@H](N)C(=O)O; Ahx = NCCCCCC(=O)O

Test system: autoimmune antibodies (anti-CCP antibody) in serum samples
Test: Sandwich ELISA of patient serum samples on peptide-coated microplates (absorbance at 450 nm)
Format: binding, human
Settings: diluted 200 times; for Average (absorbance) Normal: normal control group serum samples (25 subjects); for Average (absorbance) SLE: SLE patient serum samples (25 subjects); for Average (absorbance) OA: OA patient serum samples (15 subjects); for Average (absorbance) RA: RA patient serum samples (30 subjects), peptide coated at about 10 μg/ml
Experimental: Sandwich enzyme linked immunosorbent assay (ELISA) using the peptides of Table 1 were performed on the samples from 4 test groups. Serum samples of RA patients (30 subjects), OA patients (15 subjects), SLE patients (25 subjects), and control group samples (25 normal subjects) were prepared.
Each of the prepared peptides of Table 1 was diluted with PBS to about 10 μg/ml, added by about 100 μl to a microplate, and then coated at about 4° C. overnight, followed by adding about 200 μl of BSA solution (10 mg/mL) to each well of the peptide coated microplate to block at room temperature for about 1 hour, and washing the microplate with a PBS including about 0.1% of Tween-20 three times to use the microplate it in this assay. The patient samples and normal control group sample were diluted by 200 times and added triplet by about 100 μl to the wells of the peptide-coated microplate. After being cultured at room temperature for about 1 hour, the resulting microplate was washed three times in the same manner as the above-described washing. To detect autoimmune antibodies in the samples, 100 μl of an anti-human IgG antibody solution ([…]) was added to each cell of the microplate and incubated at room temperature for about 1 hour, followed by washing three times in the same manner as the above-described washing. After 100 μl of a TMB substrate solution was added thereto and reacted at room temperature for about 30 minutes, finally 100 μl of a 2M sulfuric acid solution was added as a stop solution to terminate the reaction, followed by absorbance measurement at a wavelength of about 450 nm using a microplate reader.
Autoimmune antibody levels in the blood samples of normal patients and various types of arthritis patients were analyzed by enzyme linked immunosorbent assay (ELISA) using the peptides of SEQ ID NOS.
Autoimmune antibody levels in the blood samples of normal patients and various arthritis patients were analyzed by ELISA using the peptides of SEQ ID NOS.

Substance	Average (absorbance) Normal	Average (absorbance) SLE	Average (absorbance) OA	Average (absorbance) RA
HSH17: HSHQESTXGRSRGSGZZ; aminocaproic acid (Z) added to C-terminal of HSH15 (HSHQEST[Cit]GRSRGSG[Ahx][Ahx])	0.1412			
CCP11A: HCHQESTXGRARGCG; CCP with 11th amino acid serine substituted by alanine (HCHQEST[Cit]GRARGCG; disulfide 2-14)	0.1125	0.3321		
CCP: cyclic citrullinated peptide HCHQESTXGRSRGCG, X citrulline (HCHQEST[Cit]GRSRGCG; disulfide 2-14) [reference compound]	0.0874	0.2347	0.2314	0.2522
CCP10P: HCHQESTXGPSRGCG; CCP with 10th amino acid arginine substituted by proline (HCHQEST[Cit]GPSRGCG; disulfide 2-14)	0.0994			
RF: rheumatoid factor peptide EGLHNHY (listed as Homo sapiens) [reference compound]	0.1484	0.3417	0.2791	0.2534
ZZH19: ZZHSHQESTXGRSRGSGZZ; aminocaproic acid (Z) added to N- and C-terminals of HSH15 ([Ahx][Ahx]HSHQEST[Cit]GRSRGSG[Ahx][Ahx])	0.1609			
CCPPAP: HCHQESTXGPAPGCG; CCP with 10th, 11th, 12th amino acids substituted by proline, alanine, proline (HCHQEST[Cit]GPAPGCG; disulfide 2-14)	0.1140	0.3287	0.2591	
HSH15: HSHQESTXGRSRGSG; CCP with disulfide bond-forming cysteine substituted with serine, X citrulline (HSHQEST[Cit]GRSRGSG)	0.1067	0.2704	0.2277	0.1942
CCP12P: HCHQESTXGRSPGCG; CCP with 12th amino acid substituted by proline (HCHQEST[Cit]GRSPGCG; disulfide 2-14)	0.1250	0.3619	0.2847	
ZZH17: ZZHSHQESTXGRSRGSG; aminocaproic acid (Z) added to N-terminal of HSH15 ([Ahx][Ahx]HSHQEST[Cit]GRSRGSG)	0.1102	0.2738		
